Measurements taken from patent US9656963B2 (BRISTOL-MYERS SQUIBB COMPANY, priority 2012, dated 2017).

Biological target: T1, hGPR40 (Homo sapiens, UniProt O14842)
T1 construct: 3x FLAG; expressed in transfected cells
Assay: FDSS-Based Intracellular Calcium Assay
Type: cell-based
Details: cells expressing GPR40, intracellular Ca2+ response
How it was run: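 Flag-tagged GPR40-expressing cells plated overnight in serum-free, phenol red-free DMEM. Compounds added from DMSO stocks, diluted in assay buffer and added as 3x solution. Intracellular Ca^2+ flux read by fluorescence on an FDSS reader.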

T1 sequence (O14842 whole entry): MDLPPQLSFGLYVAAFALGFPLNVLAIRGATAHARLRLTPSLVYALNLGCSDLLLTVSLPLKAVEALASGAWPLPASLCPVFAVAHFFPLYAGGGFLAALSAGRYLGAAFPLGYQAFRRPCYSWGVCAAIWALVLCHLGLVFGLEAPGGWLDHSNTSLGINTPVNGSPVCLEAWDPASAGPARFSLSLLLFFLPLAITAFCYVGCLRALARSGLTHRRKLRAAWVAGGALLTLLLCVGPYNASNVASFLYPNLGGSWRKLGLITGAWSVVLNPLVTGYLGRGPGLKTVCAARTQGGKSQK

Row | SMILES | EC50 [nM]
1 | COc1cc(-c2ccc(Oc3ccc(N4N=C(C(F)(F)F)CC4CC(=O)O)cc3)c(C)c2)c(F)cn1 (single isomer, unassigned) [Example 15, Isomer 2, 2-(1-(4-(4-(5-fluoro-2-methoxypyridin-4-yl)-2-methylphenoxy)phenyl)-3-(trifluoromethyl)-4,5-dihydro-1H-pyrazol-5-yl)acetic acid] | 530
2 | COc1ccc(F)c(-c2ccc(Cc3ccc(N4N=C(C(F)(F)F)CC4CC(=O)O)cc3)c(C)c2)c1 (single isomer, unassigned) [Example 17, Isomer 2, 2-(1-(4-((2′-fluoro-5′-methoxy-3-methylbiphenyl-4-yl)methyl)phenyl)-3-(trifluoromethyl)-4,5-dihydro-1H-pyrazol-5-yl)acetic acid] | 90
3 | COc1ccc(F)c(-c2ccc(Cc3ccc(N4N=C(c5ncccn5)C(C)C4CC(=O)O)cc3)c(C)c2)c1 (single isomer, unassigned) [Example 61, isomer 2] | 460
4 | COc1ccc(F)c(-c2ccc(Cc3ccc(N4N=C(c5cccc(Cl)c5)[C@@H](C)[C@@H]4CC(=O)O)cc3)c(C)c2)c1 (single isomer, unassigned) [Example 68, isomer 2] | 8460
5 | COc1cc(-c2ccc(Cc3ccc(N4N=C(C(F)(F)F)CC4CC(=O)O)cc3)c(C)c2)c(F)cn1 (single isomer, unassigned) [Example 27, Isomer 2, 2-(1-(4-(4-(5-fluoro-2-methoxypyridin-4-yl)-2-methylbenzyl)phenyl)-3-(trifluoromethyl)-4,5-dihydro-1H-pyrazol-5-yl)acetic acid] | 150
6 | COc1ccc(F)c(-c2ccc(Cc3ccc(N4N=C(C(F)(F)F)C(C5CC5)C4CC(=O)O)cc3)c(C)c2)c1 (single isomer, unassigned) [Example 43, Isomer 2, 2-(4-cyclopropyl-1-(4-((2′-fluoro-5′-methoxy-3-methylbiphenyl-4-yl)methyl)phenyl)-3-(trifluoromethyl)-4,5-dihydro-1H-pyrazol-5-yl)acetic acid] | 90
7 | Cc1ccccc1Oc1ccc(N2N=C(C#N)CC2CC(=O)O)cc1 (single isomer, unassigned) [Example 3, Isomer 2, 2-(3-cyano-1-(4-(o-tolyloxy)phenyl)-4,5-dihydro-1H-pyrazol-5-yl)acetic acid] | 560
8 | COc1ccc(F)c(-c2ccc(Cc3ccc(N4N=C(C(F)(F)F)CC4CC(=O)O)cc3)cc2C)c1 (single isomer, unassigned) [Example 22, Isomer 2, 2-(1-(4-((2′-fluoro-5′-methoxy-2-methylbiphenyl-4-yl)methyl)phenyl)-3-(trifluoromethyl)-4,5-dihydro-1H-pyrazol-5-yl)acetic acid] | 350
9 | COc1ccc(F)c(-c2ccc(Cc3ccc(N4N=C(C(F)(F)F)C(C)C4CC(=O)O)cc3)c(Cl)c2)c1 (single isomer, unassigned) [Example 60, Isomer 1, 22-(1-(4-((3-chloro-2′-fluoro-5′-methoxy-[1,1′-biphenyl]-4-yl)methyl)phenyl)-4-methyl-3-(trifluoromethyl)-4,5-dihydro-1H-pyrazol-5-yl)acetic acid] | 970
10 | COc1ccc(F)c(-c2ccc(Cc3ccc(N4N=C(c5cc(C)on5)[C@@H](C)[C@@H]4CC(=O)O)cc3)c(C)c2)c1 (single isomer, unassigned) [Example 69, isomer 2] | 2560
11 | O=C(O)CC1CC(C(F)(F)F)=NN1c1ccc(OCc2ccccc2)cc1 (racemic) [Example 1, 2-(1-(4-(benzyloxy)phenyl)-3-(trifluoromethyl)-4,5-dihydro-1H-pyrazol-5-yl)acetic acid] | 1960
12 | CCOc1ccc(F)c(-c2ccc(Cc3ccc(N4N=C(C(F)(F)F)[C@@H](C)[C@@H]4CC(=O)O)cc3)c(C)c2)c1 [Example 70, 2-((4S,5S)-1-(4-((5′-ethoxy-2′-fluoro-3-methyl-[1,1′-biphenyl]-4-yl)methyl)phenyl)-4-methyl-3-(trifluoromethyl)-4,5-dihydro-1H-pyrazol-5-yl)acetic acid] | 120

Second part, the compound after the results:

Row | EC50 [nM] | SMILES
13 | 570 | Cc1cc(Cc2ccc(N3N=C(C(F)(F)F)CC3CC(=O)O)cc2)ccc1-c1cc(C(F)(F)F)ccc1F (racemic) [Example 24, 2-(1-(4-((2′-fluoro-2-methyl-5′-(trifluoromethyl)biphenyl-4-yl)methyl)phenyl)-3-(trifluoromethyl)-4,5-dihydro-1H-pyrazol-5-yl)acetic acid]
14 | 350 | COc1ccc(Cl)c(-c2ccc(Cc3ccc(N4N=C(C(F)(F)F)CC4CC(=O)O)cc3)cc2C)c1 (racemic) [Example 23, 2-(1-(4-((2′-chloro-5′-methoxy-2-methylbiphenyl-4-yl)methyl)phenyl)-3-(trifluoromethyl)-4,5-dihydro-1H-pyrazol-5-yl)acetic acid]
15 | 1810 | Cc1ccccc1Oc1ccc(N2N=C(C(=O)N(C)C)CC2CC(=O)O)cc1 (racemic) [Example 6, 2-(3-(dimethylcarbamoyl)-1-(4-(o-tolyloxy)phenyl)-4,5-dihydro-1H-pyrazol-5-yl)acetic acid]
16 | 770 | COc1ccc(F)c(-c2ccc(Cc3ccc(N4N=C(C(F)(F)F)CC4CC(=O)O)cc3)cc2C)c1 (single isomer, unassigned) [Example 22, Isomer 1, 2-(1-(4-((2′-fluoro-5′-methoxy-2-methylbiphenyl-4-yl)methyl)phenyl)-3-(trifluoromethyl)-4,5-dihydro-1H-pyrazol-5-yl)acetic acid]
17 | 3110 | COc1ccc(OC)c(-c2ccc(Cc3ccc(N4N=C(C#N)CC4CC(=O)O)cc3)c(C)c2)c1 (single isomer, unassigned) [Example 49, Isomer 2, 2-(3-cyano-1-(4-((2′,5′-dimethoxy-3-methylbiphenyl-4-yl)methyl)phenyl)-4,5-dihydro-1H-pyrazol-5-yl)acetic acid]
18 | 1340 | COc1ccc(F)c(-c2ccc(Cc3ccc(N4N=C(C(F)(F)F)C(C)(C)C4CC(=O)O)cc3)c(C)c2)c1 (single isomer, unassigned) [Example 50, Isomer 2, 2-(1-(4-((2′-fluoro-5′-methoxy-3-methylbiphenyl-4-yl)methyl)phenyl)-4,4-dimethyl-3-(trifluoromethyl)-4,5-dihydro-1H-pyrazol-5-yl)acetic acid]
19 | 3200 | Cc1ccccc1Oc1ccc(N2N=C(c3nnnn3C)CC2CC(=O)O)cc1 (racemic) [Example 7, 2-(3-(1-methyl-1H-tetrazol-5-yl)-1-(4-(o-tolyloxy)phenyl)-4,5-dihydro-1H-pyrazol-5-yl)acetic acid]
20 | 1160 | COc1ccc(F)c(-c2ccc(Oc3ccc(N4N=C(c5ncco5)CC4CC(=O)O)cc3)c(C)c2)c1 (single isomer, unassigned) [Example 8, Isomer 2, 2-(1-(4-(2′-fluoro-5′-methoxy-3-methylbiphenyl-4-yloxy)phenyl)-3-(oxazol-2-yl)-4,5-dihydro-1H-pyrazol-5-yl)acetic acid]
21 | 280 | Cc1cc(Cc2ccc(N3N=C(C(F)(F)F)CC3CC(=O)O)cc2)ccc1-c1cc(OC(F)(F)F)ccc1Cl (racemic) [Example 25, 2-(1-(4-((2′-chloro-2-methyl-5′-(trifluoromethoxy)biphenyl-4-yl)methyl)phenyl)-3-(trifluoromethyl)-4,5-dihydro-1H-pyrazol-5-yl)acetic acid]
22 | 1490 | COc1ccc(F)c(-c2cnc(Oc3ccc(N4N=C(C(F)(F)F)[C@@H](C)[C@@H]4CC(=O)O)cc3)nc2)c1 [Example 65, 2-((4S,5S)-1-(4-(5-(2-fluoro-5-methoxyphenyl)pyrimidin-2-yloxy)phenyl)-4-methyl-3-(trifluoromethyl)-4,5-dihydro-1H-pyrazol-5-yl)acetic acid]
23 | 190 | COc1ccc(F)c(-c2ccc(Oc3ccc(N4N=C(C#N)CC4CC(=O)O)cc3)c(C)c2)c1 (racemic) [Example 32, 2-(3-cyano-1-(4-(2′-fluoro-5′-methoxy-3-methylbiphenyl-4-yloxy)phenyl)-4,5-dihydro-1H-pyrazol-5-yl)acetic acid]
24 | 500 | COc1ccc(F)c(-c2cc(C)c(Cc3ccc(N4N=C(C(F)(F)F)CC4CC(=O)O)cc3)c(F)c2)c1 (single isomer, unassigned) [Example 21, Isomer 1, 2-(1-(4-((2′,3-difluoro-5′-methoxy-5-methylbiphenyl-4-yl)methyl)phenyl)-3-(trifluoromethyl)-4,5-dihydro-1H-pyrazol-5-yl)acetic acid]
25 | 70 | Cc1ccccc1Oc1ccc(N2N=C(C(F)(F)F)CC2CC(=O)O)cc1 (single isomer, unassigned) [Example 11, Isomer 1, 2-(1-(4-(o-tolyloxy)phenyl)-3-(trifluoromethyl)-4,5-dihydro-1H-pyrazol-5-yl)acetic acid]
26 | 200 | Cc1cc(-c2cc(C#N)ccc2F)ccc1Cc1ccc(N2N=C(C#N)CC2CC(=O)O)cc1 (racemic) [Example 39, 2-(3-cyano-1-(4-((5′-cyano-2′-fluoro-3-methylbiphenyl-4-yl)methyl)phenyl)-4,5-dihydro-1H-pyrazol-5-yl)acetic acid]
27 | 37 | Cc1ccccc1Oc1ccc(N2N=C(C#N)CC2CC(=O)O)cc1 (single isomer, unassigned) [Example 3, Isomer 1, 2-(3-cyano-1-(4-(o-tolyloxy)phenyl)-4,5-dihydro-1H-pyrazol-5-yl)acetic acid]
28 | 170 | COCC1C(C(F)(F)F)=NN(c2ccc(Cc3ccc(-c4cc(OC)ccc4F)cc3C)cc2)C1CC(=O)O (single isomer, unassigned) [Example 48, Isomer 1, 2-(1-(4-((2′-fluoro-5′-methoxy-3-methylbiphenyl-4-yl)methyl)phenyl)-4-(methoxymethyl)-3-(trifluoromethyl)-4,5-dihydro-1H-pyrazol-5-yl)acetic acid]
29 | 1490 | COc1ccc(F)c(-c2ccc(Cc3ccc(N4N=C(C(F)(F)F)CC4(C)CC(=O)O)cc3)c(C)c2)c1 (single isomer, unassigned) [Example 51, Isomer 2, 2-(1-(4-((2′-fluoro-5′-methoxy-3-methylbiphenyl-4-yl)methyl)phenyl)-5-methyl-3-(trifluoromethyl)-4,5-dihydro-1H-pyrazol-5-yl)acetic acid]
